Measurements taken from PMC12844124, “Synthesis and Study of Substituted Chalcones Combined with Fluoroazobenzenes—New Photoswitches for Application in Biological Systems” (Molecules, 2026).

Experiments:
PC-3 cells [1] = experiment: MTS cell proliferation assay, PC-3; assay type: cell-based, human; conditions: for IC50: Homo sapiens
Protocol: Human BJ fibroblasts (American Type Cell Culture Collection, Manassas, VA, USA, CRL-2522) and human prostate cancer cell line PC-3 (American Type Cell Culture Collection, Manassas, VA, USA, CRL-1435), derived from bone metastases, were routinely grown in […]) Medium (ThermoFisher, Waltham, MA, USA, 21127-022) and supplemented with heat-inactivated 10% Fetal Bovine Serum (Biowest, France, […]) and 1% antibiotic solution (Biowest, Nuaillé, France, L0022), in a humidified 5% CO2 atmosphere at 37 °C. Cells were used between 3 and 20 passages. The 96-well plates were prepared by seeding 5 × 10^3 or 2.5 × 10^3 cells per well, for 24 and 48 h treatments, respectively, with at least five technical and two biological repeats. […] The cells were treated with either the Z conformer of 17j, with continuous illumination with 525 nm light, or the E conformer. The Z conformer was prepared by illuminating its DMSO solution with 525 nm light overnight. The cell proliferation was analyzed with CellTiter Aqueous One Solution Cell Proliferation MTS (3-(4,5-dimethylthiazol-2-yl)-5-(3-carboxymethoxyphenyl)-2-(4-sulfophenyl)-2H-tetrazolium) Assay (Promega, Madison, WI, USA, G5430) after 24 or 48 h of treatment. The absorbance was measured at 490 and 670 nm with FLUOStar Omega plate reader (BMG LABTECH GmbH, Ortenberg, Germany). The statistical analysis was performed within R 4.5.1 project. […] The log-logistic four parametric model (4PL), with the lower limit boundary set to 0 and group fitting, was used, as available in the drc package, to fit cell proliferation data. […] The assessment metrics for model goodness of fit were performed with functions available in the drc package and with custom ones. When appropriate, the delta method was applied to obtain error of central tendency. To assess the goodness of fit for each of the biological replicates, deviance R^2 (DR^2) was calculated and assessed. […] The DR^2 was calculated according to the following Equation: 1 - (Dres/Dnull), where Dres-residual deviance and Dnull-null deviance (deviance of the model with mean as a predicted value). The null hypothesis was assessed with the two-way ANOVA with Tukey's post hoc test for multiple comparisons or with the two-way t-test when only two groups were compared. The differences in the cell cycle percentages were assessed with the two-way ANOVA with Tukey's post hoc test.

PC-3 cells [2] = experiment: Cell cycle analysis by flow cytometry, PC-3; assay type: cell-based, human; conditions: Z conformer, 24 h; for percentage of cells in the G2/M phase: control 26.5%
Protocol: The BJ or PC-3 cells were treated as described previously, with the exception that 0.15 × 10^6 cells per well were seeded in 6-well plates. After 24 h of treatment, cells were harvested by trypsinization (Biowest, Nuaillé, France, L0931), washed twice, resuspended in PBS, and added to cold 70% ethanol for overnight fixation at −20 °C. Subsequently, cells were centrifuged and resuspended in PBS containing 5 µg/mL of propidium iodide in PBS (Sigma-Aldrich, St. Louis, MO, USA, 4170), 0.1% Triton X-100, and 10 µg/mL of DNAse-free RNAse (A&A Biotechnology, Gdansk, Poland, 1006-10) in the dark for 4 h at 37 °C. FACS analysis was performed using a FACSCanto II flow cytometer and FACSDiva, version 9.0 software (BD Biosciences, San Jose, CA, USA). Flow rate was set to about 1000 events/cells per second. Signals from at least 10,000 events per sample were captured. The percentages of PC-3 cells in cell cycle phases (G0/G1, S, and G2/M) were determined using ModFit LT 4.1.7 (Verity Software House, Topsham, ME, USA).

[3] = Photostationary state (PSS) composition by 19F NMR; assay type: physicochemical; conditions: irradiation 525 nm, DMSO-d6
From the text: Azo compounds have been applied in various fields due to their ability to undergo structural changes, with one of the most interesting applications being the direct conversion of light into mechanical energy. However, azobenzenes generally face two main limitations that hinder their practical use in biological and materials sciences. The first is the need for UV light to induce the E→Z isomerization through π→π* excitation, which can potentially interfere with and damage the surrounding environment. The second limitation is the typically incomplete reverse Z→E photoisomerization, which is induced by irradiation in the visible region. In this region, the n→π* bands of the E and Z isomers largely overlap, making it difficult to achieve E-rich photostationary states (PSSs) after back-switching. These limitations can be overcome by modifying azobenzene in such a way that the n→π* bands of the E and Z isomers are sufficiently separated. If the separation is large enough, the two n→π* bands can be distinct, allowing visible light to selectively isomerize both isomers with high to complete E/Z photoconversions. We are looking for switches that operate within the visible light range of 380–750 nm, which is harmless. Fluorine-substituted azobenzenes are well-suited for designing visible-light-responsive systems, offering stable and bidirectional photoconversions along with tissue-compatible properties. We confirmed that the compounds we synthesized successfully dock with tubulin. In the next step, we tested whether the added azo compound would meet our expectations as a visible light switch. For this purpose, we used NMR spectroscopy. We measured ^19F spectra of (17a–17c, 17e–17g, and 17i–17l) at nine wavelengths from 390 nm to 610 nm to check which wavelengths produce the most Z isomer after exposure (see Section S4.2 in Supplementary Materials). We selected DMSO as the solvent due to its ability to dissolve both polar and nonpolar molecules, which is essential for the analytical methods employed in this study. Its intermediate polarity also makes it a good surrogate for both organic and aqueous solvents. Additionally, DMSO is commonly used for preparing stock solutions, which are then illuminated and diluted into aqueous systems for assessing biological activity. […]
Figure 2 (a) Photostationary state (PSS) compositions for chalcones (17a–17c, 17e–17g, and 17i–17l) determined by ^19F NMR analysis (c ≈ 100 mM in DMSO-d6), presented in a bar chart; (b) representative multiple photoswitching rounds of 60 µM of (17j) in DMSO by pulsed green (525 nm) and blue (430 nm) light illumination. The photochemical stability of the drug is analyzed via repeated cycles of irradiation (software: Microsoft Excel).

## COc1cc(/C=C/C(=O)c2cccc(/N=N/c3c(F)cccc3F)c2)cc(OC)c1 [Compound 17j]
PC-3 cells [1]; E conformer
  IC50 difference between PC-3 and BJ cells: 2.2 fold
PC-3 cells [1]; E conformer, 24 h
  normalized asymptote (normalized limit): 50.0 ± 9.9%
PC-3 cells [1]; E conformer, 48 h
  normalized asymptote (normalized limit): 15.0 ± 0.2%
PC-3 cells [1]; PC-3, 24 h, E conformer, 24 h incubation
  IC50: 14.6 ± 1 µM
PC-3 cells [1]; PC-3, 24 h, Z conformer, 525 nm illumination, 24 h treatment
  IC50: 12 ± 4.42 µM
PC-3 cells [1]; PC-3, 48 h, E conformer, 48 h incubation
  IC50: 5.8 ± 0.8 µM
PC-3 cells [1]; PC-3, 48 h, Z conformer, 525 nm illumination, 48 h treatment
  IC50: 4.75 ± 1 µM
PC-3 cells [1]; Z conformer, 24 h
  normalized asymptote (ratio of lower to upper asymptote): 44.9 ± 3.7%
PC-3 cells [1]; Z conformer, 48 h
  normalized asymptote (ratio of lower to upper asymptote): 0.9 ± 0.9%
PC-3 cells [2]; 20 µM
  percentage of cells in the G2/M phase: 30.2%
PC-3 cells [2]; 30 µM
  percentage of cells in the S phase: 28.8%
  percentage of cells in the G2/M phase: 37.0%
PC-3 cells [2]; 40 µM
  percentage of cells in the S phase: 31%
  percentage of cells in the G2/M phase: 32.1%
[3]
  share of the Z configuration (PSS): 73.2%
